Reference: patent US9044429B2, “Personal care compositions comprising a methyl naphthalenyl ketone or a derivative thereof” (The Gillette Company, priority 2010, dated 2015)

Columns and labels:
Type in all cases: cell-based
[1] = molecular target: T1, human TRPV1 (Homo sapiens, UniProt Q8NER1); assay: Pre-Incubation Test (FLIPR intracellular calcium, HEK-293 cells, capsaicin activator); conditions: test compound final 100 μM
T1 construct: expressed in transfected cells; host or cells: HEK-293
Method: (§1) The Pre-Incubation Test and Direct Addition Test Methods, as defined herein, can be conducted on either TRPV1 or TRPA1 receptors.
(§2) Pre-Incubation Test Method: First, the intracellular calcium ion (Ca^+2) levels in TRPV1 and TRPA1 receptors is measured. HEK-293 (human embryonic kidney) cells stably transfected with human TRPV1 or TRPA1 are grown in 15 ml growth medium [high glucose DMEM (Dulbecco's Modification of Eagle's Medium) supplemented with 10% FBS (fetal bovine serum), 100 μg/ml Penicillin/streptomycin, 100 μg/ml G418] in a 75 Cm^2 flask for 3 days at 33° C. in a mammalian cell culture incubator set at 5% CO2. Cells are detached with addition of 10 ml of PBS (phosphate buffered saline) by hand shaking gently. […] Fluo-4 is a fluorescent dye used for quantifying cellular Ca^2+ concentrations in the 100 nM to 1 microM range. […]
(§3) The pellet cells are re-suspended in 10 ml assay buffer and 90 μl aliquots (50,000 cells) per well delivered to a 96-well assay plate containing 10 μl of test compounds (1 mM in assay buffer, final concentration 100 μM) or buffer control and incubated at room temperature for 30 minutes. After 30 minutes, the plate is placed into a fluorometric imaging plate reader (FLIPR^384 from Molecular Devices) and basal fluorescence recorded (excitation wave length 488 nm and emission wave length 510 nm). […]

[2] = molecular target: T2, human TRPA1 (Homo sapiens, UniProt O75762); assay: Pre-Incubation Test (FLIPR intracellular calcium, HEK-293 cells, AITC activator); conditions: test compound final 100 μM
T2 construct: expressed in transfected cells; host or cells: HEK-293
T2 sequence (O75762 whole entry): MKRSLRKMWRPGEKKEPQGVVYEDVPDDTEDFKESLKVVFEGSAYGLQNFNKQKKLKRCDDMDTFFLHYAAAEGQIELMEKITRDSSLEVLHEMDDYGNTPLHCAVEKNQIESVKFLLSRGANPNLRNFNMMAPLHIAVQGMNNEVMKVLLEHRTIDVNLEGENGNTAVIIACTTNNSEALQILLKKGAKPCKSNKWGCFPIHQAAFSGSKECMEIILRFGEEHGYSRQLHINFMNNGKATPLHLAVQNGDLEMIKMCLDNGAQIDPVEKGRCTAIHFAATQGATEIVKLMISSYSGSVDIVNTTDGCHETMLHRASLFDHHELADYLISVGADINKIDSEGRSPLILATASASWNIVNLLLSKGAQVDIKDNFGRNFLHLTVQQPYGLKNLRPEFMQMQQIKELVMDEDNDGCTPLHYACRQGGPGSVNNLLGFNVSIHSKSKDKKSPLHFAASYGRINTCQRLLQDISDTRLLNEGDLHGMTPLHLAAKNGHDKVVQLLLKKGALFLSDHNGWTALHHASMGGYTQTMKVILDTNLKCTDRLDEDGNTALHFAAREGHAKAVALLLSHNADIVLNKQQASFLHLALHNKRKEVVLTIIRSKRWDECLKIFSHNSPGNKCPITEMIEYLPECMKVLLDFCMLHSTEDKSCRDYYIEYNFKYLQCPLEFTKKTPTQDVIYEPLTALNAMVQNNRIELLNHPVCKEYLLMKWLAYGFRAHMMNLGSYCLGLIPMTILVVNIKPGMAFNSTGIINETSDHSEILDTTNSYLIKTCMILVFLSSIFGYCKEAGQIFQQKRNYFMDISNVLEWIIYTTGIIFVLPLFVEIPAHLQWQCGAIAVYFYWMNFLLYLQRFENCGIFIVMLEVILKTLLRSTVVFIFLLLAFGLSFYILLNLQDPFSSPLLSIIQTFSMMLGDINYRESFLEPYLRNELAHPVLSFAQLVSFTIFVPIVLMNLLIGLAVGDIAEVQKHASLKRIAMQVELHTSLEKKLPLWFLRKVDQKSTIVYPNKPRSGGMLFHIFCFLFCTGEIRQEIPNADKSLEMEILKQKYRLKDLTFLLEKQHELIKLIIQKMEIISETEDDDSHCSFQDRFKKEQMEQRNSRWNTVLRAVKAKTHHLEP
Method: as §1, §2, §3

[3] = molecular target: T2, human TRPA1; assay: Direct Addition Test (FLIPR intracellular calcium, HEK-293 cells); conditions: compound final 100 μM
Method: as §1
(§4) Pre-Incubation Test Method: First, the intracellular calcium ion (Ca^+2) levels in TRPV1 and TRPA1 receptors is measured. HEK-293 (human embryonic kidney) cells stably transfected with human TRPV1 or TRPA1 are grown in 15 ml growth medium [high glucose DMEM (Dulbecco's Modification of Eagle's Medium) supplemented with 10% FBS (fetal bovine serum), 100 μg/ml Penicillin/streptomycin, 100 μg/ml G418] in a 75 Cm^2 flask for 3 days at 33° C. in a mammalian cell culture incubator set at 5% CO2. Cells are detached with addition of 10 ml of PBS (phosphate buffered saline) by hand shaking gently. Cells are transferred to a 50 ml tube and centrifuged at 850 rpm for 3 minutes to remove PBS. After centrifugation, a pellet of cells is formed in the bottom of the tube separating them from the supernatant solution. The supernatant is discarded and the cell pellet is suspended in 1 ml of fresh growth medium to which 5 μl (12.5 μg) of Fluo-4 AM (Molecular Probes, Inc.) calcium indicator is added and incubated for 30 min with gentle shaking on a plate shaker. Fluo-4 is a fluorescent dye used for quantifying cellular Ca^2+ concentrations in the 100 nM to 1 microM range. At the end of the 30 minutes, 45 ml of assay buffer [1×HBSS (Hank's Balanced Salt Solution), 20 mM HEPES (4-(2-Hydroxyethyl)-1-piperazineethanesulfonic acid)] is added to wash cells and the resulting combination is then centrifuged at 850 rpm for 3 minutes to remove excess buffer and Fluo-4 AM calcium indicator.
(§5) The pellet cells are re-suspended in 10 ml assay buffer and 90 μl aliquots (50,000 cells) per well delivered to a 96-well assay plate containing 10 μl of test compounds (1 mM in assay buffer, final concentration 100 μM) or buffer control and incubated at room temperature for 30 minutes. After 30 minutes, the plate is placed into a fluorometric imaging plate reader (FLIPR^384 from Molecular Devices) and basal fluorescence recorded (excitation wave length 488 nm and emission wave length 510 nm). […] Then 20 μl of the activators [1.8 μM Capsaicin (final concentration 300 nM) for TRPV1 or 300 μM AITC (final concentration 50 μM) for TRPA1 is added by FLIPR automatically and fluorescence recorded immediately.
(§6) Direct Addition Test Method (for determining the direct effect of test compounds on TRPV1 and TRPA1): All procedures are same as the pre-incubation test except 10 μl assay buffer instead of 10 μl test compounds in the 96-well assay plates. The fluorescence is measured immediately after addition of 20 μl of 600 μM each compound (final concentration 100 μM). […] The percentage of up-regulation or down-regulation is calculated based on the fluorescence measurement.

[4] = molecular target: T1, human TRPV1; assay: as above; conditions: compound final 100 μM
Method: as §1, §4, §5, §6

[5] = calculated from fluorescence relative to activator

T1 sequence (Q8NER1 whole entry): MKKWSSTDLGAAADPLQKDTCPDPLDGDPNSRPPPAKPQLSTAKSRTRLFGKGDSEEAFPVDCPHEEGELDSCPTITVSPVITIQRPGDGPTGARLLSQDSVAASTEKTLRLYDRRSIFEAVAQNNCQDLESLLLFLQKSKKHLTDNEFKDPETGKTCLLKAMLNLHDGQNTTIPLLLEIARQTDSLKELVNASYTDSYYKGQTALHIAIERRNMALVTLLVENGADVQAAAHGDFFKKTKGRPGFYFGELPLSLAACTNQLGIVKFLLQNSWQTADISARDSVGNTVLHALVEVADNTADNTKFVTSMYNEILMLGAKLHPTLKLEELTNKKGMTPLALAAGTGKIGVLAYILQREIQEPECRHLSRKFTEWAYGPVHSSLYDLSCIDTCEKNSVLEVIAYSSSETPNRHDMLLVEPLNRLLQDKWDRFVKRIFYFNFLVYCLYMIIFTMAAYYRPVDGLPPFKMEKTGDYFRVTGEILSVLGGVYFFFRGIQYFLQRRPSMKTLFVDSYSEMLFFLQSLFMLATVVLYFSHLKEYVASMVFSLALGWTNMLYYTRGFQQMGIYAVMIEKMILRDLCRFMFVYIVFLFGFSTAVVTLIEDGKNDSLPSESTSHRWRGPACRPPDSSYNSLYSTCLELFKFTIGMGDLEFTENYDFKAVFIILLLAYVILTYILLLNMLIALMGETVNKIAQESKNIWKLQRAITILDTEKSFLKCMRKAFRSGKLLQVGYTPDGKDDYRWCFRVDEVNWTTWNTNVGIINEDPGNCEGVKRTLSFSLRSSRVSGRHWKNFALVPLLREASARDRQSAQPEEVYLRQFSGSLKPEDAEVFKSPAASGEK

CC(=O)C1(C)CC2=C(CCCC2(C)C)CC1C (centres unmarked) [Iso E Super, 1-(1,2,3,4,5,6,7,8-octahydro-2,3,8,8-tetramethyl-2naphthalenyl)-ethan-1-one]
Fluorescence value after adding Iso E Super ([1]; 30 min at room temperature, then capsaicin final 300 nM): 2334.51 fluorescence units
% Regulation [1, 5]: 21.82%
Fluorescence value after adding Iso E Super ([2]; 30 min at room temperature, then AITC final 50 μM): −57.37 fluorescence units
% Regulation [2, 5]: −0.40%
% Regulation [3, 5]: 11.53%
Fluorescence value after adding Iso E Super ([3]; measured immediately): 1386.593 fluorescence units
% Regulation [4, 5]: −0.71%
Fluorescence value after adding Iso E Super ([4]; measured immediately): −82.62 fluorescence units
